Data: patent US20250188088A1, “COMPOUND AND USE THEREOF” (ONQUALITY PHARMACEUTICALS CHINA LTD., priority 2022, published 2025)
Blank lines part the entries; values can stand above or below the compound they belong to.

How the values were obtained:
[1] = test system: rash caused by small molecule EGFR inhibitors; assay: Treatment of rash caused by small molecule EGFR inhibitors, topical ointment, rat model; type: in vivo, SD rats
Protocol: An Experiment to Verify the Treatment of Rash Caused by Small Molecule EGFR Inhibitors with Topical Administration of Compounds of the Present Application on a Rat Animal Model After the SD rats were fed and adapted for one week (about 200 g), the rats were divided into 10 rats per group. The hair on the back of rats was gently removed with an electric razor one day before the experiment, and then an intragastric administration test was carried out. EGFR inhibitors were dissolved in a sterile aqueous solution, and diluted with PBS buffer; the amount of each gavage was not more than 2 mL, and the dosage was shown in Table 3. […] The experiments were divided into the administration group with the compound of the present application and the control group. During the treatment experiment, EGFR inhibitors were intragastrically administered continuously every day. After the gavage, the administration group applied the compound ointment of the present application on the back (about 3 cm*3 cm) of rats, and the control group applied blank matrix ointment on the back (about 3 cm*3 cm); after application, the rats were fixed with a fixed cyclinder for about 4 hours, and then the rats were released, with the residual drug at the application site wiped off with clean water, and put back into the cage. The frequency of intragastric administration of EGFR inhibitors is shown in Table 3, but the compounds of the present application and blank ointment are applied only once a day. […] Table 3 lists the animal experiment combinations of various small molecule EGFR inhibitors and the compound ointment of the present application, as well as the corresponding experiment results (wherein, the value in the control rate column=the number of rats whose rash is milder in the administration group than that in the control group/the total number of rats in the administration group×100%).

[2] = test system: skin contact delayed-type hypersensitivity; assay: Skin contact delayed-type hypersensitivity (DNFB) response test, ear swelling, topical ointment; type: in vivo; details: topical to ears, DNFB DTH, Balb/c mice, compared to blank ointment
Excerpt: Therapeutic Effect of Topical Administration of Compounds of the Present Application in Skin Contact Delayed-Type Hypersensitivity Response Test in Mice Delayed-type hypersensitivity (DTH) response in mouse skin is considered to be an effective model for clinical contact dermatitis and other T cell-mediated cutaneous immune diseases, such as atopic dermatitis and psoriasis. The DTH in mice shares the common features with these cutaneous immune diseases, including immunoinfiltration with an increase of inflammatory cytokines and hyperproliferation of keratinocytes. Balb/c mice were sensitized by topical administration of the antigen 2,4-dinitrofluorobenzene (DNFB) to the shaved back of mice on Days 0 and 1. On Day 5, the thickness of the ears was measured using an engineering micrometer. The measurement result was recorded and used as a baseline. The animals were then challenged with a total of 20 μL of DNFB (10 μL for the internal pinna and 10 μL for the external pinna) topically dosed to both ears at a concentration of 0.2%. The ears were measured again 24-72 hours after challenge. The compound ointment of the present application was applied topically to the ears of the animals throughout the allergic and challenge periods (Days −1˜7) or before or throughout the challenge period (generally Days 4˜7). The therapeutic effect was expressed by a reduction in ear swelling compared to that of the blank ointment. The compound causing a reduction of 20% or more was considered effective. Table 5 lists the skin contact delayed-type hypersensitivity experiment results in mice treated with the compound of the present application.

[3] = test system: rash caused by monoclonal EGFR inhibitors; assay: Treatment of rash caused by monoclonal EGFR inhibitors, topical ointment, rat model; type: in vivo; details: SD rats
Protocol: An Experiment to Verify the Treatment of Rash Caused by Monoclonal EGFR Inhibitors with Topical Administration of Compounds of the Present Application on a Rat Animal Model After the SD rats were fed and adapted for one week (about 200 g), the rats were divided into 10 rats per group. The hair on the back of rats was gently removed with an electric razor one day before the experiment, and then an administration test was carried out. The EGFR monoclonal antibody solution diluted with normal saline was injected via tail vein twice a week, and the injection rate and time were shown in Table 4; the treatment experiment was started at the time point when rats developed a rash after continuous administration for 1-2 weeks. The experiments were divided into the administration group with the compound of the present application and the control group. During the treatment experiment, monoclonal antibody EGFR inhibitors were injected twice a week. the administration group applied the compound ointment of the present application on the back (about 3 cm*3 cm) of rats every day, and the control group applied blank matrix ointment on the back (about 3 cm*3 cm); after application, the rats were fixed with a fixed cyclinder for about 4 hours, and then the rats were released, with the residual drug at the application site wiped off with clean water, and put back into the cage. […] Table 4 lists the animal experiment combinations of monoclonal antibody EGFR inhibitors and the compound ointment of the present application, as well as the corresponding experiment results (wherein, the value in the control rate column=the number of rats whose rash is milder in the administration group than that in the control group/the total number of rats in the administration group×100%).

[4] = Plasma stability, human plasma; type: in vitro ADME, Humans; details: 37° C.
Protocol: (§1) In addition, the plasma stability of these compounds was determined. Briefly, the determination method comprises the following steps: • 1) Thaw the frozen mixed plasma in a 37° C. water bath before testing, and then centrifuge at 4000 rpm for 5 min to remove blood clots; • 2) Add 98 μL blank plasma into each well of the 96-well reaction plate; • 3) In addition to the blank samples, add 2 μL of 100 μM working solution of test compound into each well; • 3) Incubate the reaction plate at 37° C. and start timing. Incubation times were 0, 10, 30, 60 and 120 minutes, respectively, with two replicate wells at each time point; • 4) Terminate the incubation at the corresponding time point, and add 400 μL of acetonitrile solution containing 200 ng/mL tolbutamide and 200 ng/mL labetalol to precipitate proteins; • 5) Shake each plate for 20 minutes, then centrifuge at 4000 rpm for 20 minutes, transfer 50 μL of supernatant to another 96-well plate, and dilute each sample with 100 μL of pure water; • 6) Analyze the sample by LC-MS/MS.
The experiment results are as follows, and it can be seen from the test results that the selected compounds are easily metabolized to the target compound in human plasma.

[5] = test system: rash caused by small molecule EGFR inhibitors; assay: Prevention of rash caused by small molecule EGFR inhibitors, topical ointment, rat model; type: in vivo, SD rats
Excerpt: An Experiment to Verify the Prevention of Rash Caused by Small Molecule EGFR Inhibitors with Topical Administration of Compounds of the Present Application on a Rat Animal Model A rat animal model was established. After daily gavage of a small molecule EGFR inhibitor to female SD rats for […], the rats developed extensive rashes on their backs several days later (picture shown in FIG. 1). […] Similar to humans, rats developed skin rashes on their faces and bodies after oral administration of small molecule EGFR inhibitors. Both of them had the same etiology and very similar symptoms. Therefore, rats are a proper animal model for mimicking EGFR inhibitor-induced rash. After the SD rats were fed and adapted for one week (about 200 g), the rats were divided into 10 rats per group. The hair on the back of rats was gently removed with an electric razor one day before the experiment, and then an intragastric administration test was carried out. EGFR inhibitors were dissolved in a sterile aqueous solution, and diluted with PBS buffer; the amount of each gavage was not more than 2 mL, and the dosage was shown in Table 1. The experiment comprised the administration group and the control group. After intragastric administration, apply the ointment (type and concentration are shown in Table 1) of the compound used in the present application to the backs (about 3 cm*3 cm) of rats in the administration group; apply blank matrix ointment (about 0.5 g) to the backs (about 3 cm*3 cm) of rats in the control group; fix the rats with a fixed cylinder for about 4 hours after drug application, release the rats after 4 hours, wipe off the residual drug at the application site with clean water, and put them back into the cage. The frequency of intragastric administration of EGFR inhibitors is shown in Table 1, but the compounds of the present application and blank matrix ointment are applied only once a day. The intragastric administration and application test were repeated daily until an obvious rash appeared in the control group. […] Table 1 lists the animal experiment combination of various small molecule EGFR inhibitors and the compound ointment of the present application, as well as the corresponding experiment results (wherein, the value in the control rate column=the number of rats whose rash is milder in the administration group than that in the control group/the total number of rats in the administration group×100%).

[6] = Plasma stability, mini pig plasma; type: in vitro ADME, Mini Pigs; details: 37° C.
Protocol: as §1

[7] = test system: rash caused by monoclonal EGFR inhibitors; assay: Prevention of rash caused by monoclonal EGFR inhibitors, topical ointment, rat model; type: in vivo, SD rats
Protocol: An Experiment to Verify the Prevention of Rash Caused by Monoclonal EGFR Inhibitors with Topical Administration of Compounds of the Present Application on a Rat Animal Model After the SD rats were fed and adapted for one week (about 200 g), the rats were divided into 10 rats per group. The hair on the back of rats was gently removed with an electric razor one day before the experiment, and then an administration test was carried out. The experiments were divided into the administration group with the compound of the present application and the control group. The EGFR monoclonal antibody solution diluted with normal saline was injected via the tail vein twice a week, and the injection rate and time are shown in Table 2. After injection, the administration group applied the compound ointment of the present application on the backs (about 3 cm*3 cm) of rats every day, and the control group applied blank matrix ointment (about 0.5 g) to the backs (about 3 cm*3 cm) of rats every day. After drug application, the rats were fixed with a fixed cyclinder for 4 h; after that, the rats were released and the residual drug at the application site was wiped off with clear water. Monoclonal antibody EGFR inhibitors were injected via the tail vein twice a week, and the compound of the present application and blank ointment were applied once a day until obvious rashes appeared in the control group. […] Table 2 lists the animal experiment combinations of various monoclonal antibody EGFR inhibitors and the compound ointment of the present application, as well as the corresponding experiment results (wherein, the value in the control rate column=the number of rats whose rash is milder in the administration group than that in the control group/the total number of rats in the administration group×100%).

SMILES: C=CC(=O)N1C[C@@H](Nc2ncnc3c2ccn3C(=O)N(C)CCOC(=O)C2CC2)CC[C@H]1C [Compound A33]
- Control Rate ([1]; EAI045 80 mg/kg once a day, 8 dosing modelling days, ointment 1.0 wt% once a day): 30%
- Control Rate ([1]; EAI045 80 mg/kg once a day, 8 dosing modelling days, ointment 5.0 wt% once a day): 60%
- Control Rate ([1]; Osimertinib 60 mg/kg twice a day, 7 dosing modelling days, ointment 3.0 wt% once a day): 30%
- Control Rate ([1]; Osimertinib 60 mg/kg twice a day, 7 dosing modelling days, ointment 10.0 wt% once a day): 70%
- Reduction Rate of Ear Swelling ([2]; ointment 1.0 wt%): 22%
- Reduction Rate of Ear Swelling ([2]; ointment 5.0 wt%): 32%
- Control Rate ([3]; Cetuximab 100 mg/kg twice a week via tail vein, ointment 0.1 wt%, 10 days of drug application): 20%
- Control Rate ([3]; Cetuximab 100 mg/kg twice a week via tail vein, ointment 1.0 wt%, 10 days of drug application): 50%
- Control Rate ([3]; Cetuximab 100 mg/kg twice a week via tail vein, ointment 5.0 wt%, 10 days of drug application): 80%
- Control Rate ([3]; Cetuximab 100 mg/kg twice a week via tail vein, ointment 10.0 wt%, 10 days of drug application): 100%
- Control Rate ([3]; Panitumumab 6 mg/kg twice a week via tail vein, ointment 0.1 wt%, 8 days of drug application): 30%
- Control Rate ([3]; Panitumumab 6 mg/kg twice a week via tail vein, ointment 1.0 wt%, 8 days of drug application): 70%
- Control Rate ([3]; Panitumumab 6 mg/kg twice a week via tail vein, ointment 5.0 wt%, 8 days of drug application): 70%
- Control Rate ([3]; Panitumumab 6 mg/kg twice a week via tail vein, ointment 10.0 wt%, 8 days of drug application): 100%

- half-life at 2 µM [4]: 2.2 min
- % Retained ([4]; 0 min): 100.0%
- % Retained ([4]; 10 min): 4.5%
- % Retained ([4]; 30 min): 0.0%
- % Retained ([4]; 60 min): 0.0%
- % Retained ([4]; 120 min): 0.0%
- half-life at 2 µM [6]: 2.8 min
- % Retained ([6]; 0 min): 100.0%
- % Retained ([6]; 10 min): 8.3%
- % Retained ([6]; 30 min): 0.1%
- % Retained ([6]; 60 min): 0.0%
- % Retained ([6]; 120 min): 0.0%
SMILES: C[C@@H]1CCN(C(=O)CC#N)C[C@@H]1N(C)c1ncnc2c1ccn2C(=O)N(C)CCOC(=O)C1CCCCC1 [Compound A16]
- Reduction Rate of Ear Swelling ([2]; ointment 0.1 wt%): 25%
- Reduction Rate of Ear Swelling ([2]; ointment 1.0 wt%): 35%
- Reduction Rate of Ear Swelling ([2]; ointment 5.0 wt%): 39%
- Reduction Rate of Ear Swelling ([2]; ointment 10.0 wt%): 42%
- Control Rate ([5]; Afatinib 40 mg/kg once a day, ointment 1.0 wt% once a day, 14 days): 60%
- Control Rate ([5]; Afatinib 40 mg/kg once a day, ointment 5.0 wt% once a day, 14 days): 80%
- Control Rate ([5]; Afatinib 40 mg/kg once a day, ointment 10.0 wt% once a day, 14 days): 100%
- Control Rate ([5]; BPI-7711 60 mg/kg once a day, ointment 1.0 wt% once a day, 12 days): 50%
- Control Rate ([5]; Erlotinib 70 mg/kg once a day, ointment 0.3 wt% once a day, 14 days): 30%
- Control Rate ([5]; Erlotinib 70 mg/kg once a day, ointment 3.0 wt% once a day, 14 days): 50%
- Control Rate ([5]; Zorifertinib 60 mg/kg once a day, ointment 1.0 wt% once a day, 14 days): 30%
- Control Rate ([7]; Cetuximab 100 mg/kg twice a week via tail vein, ointment 0.3 wt% once a day, 10 days): 10%
- Control Rate ([7]; Cetuximab 100 mg/kg twice a week via tail vein, ointment 3.0 wt% once a day, 10 days): 50%
- Control Rate ([7]; Cetuximab 100 mg/kg twice a week via tail vein, ointment 10.0 wt% once a day, 10 days): 70%
- Control Rate ([7]; Panitumumab 10 mg/kg twice a week via tail vein, ointment 1.0 wt% once a day, 14 days): 50%
- Control Rate ([7]; Panitumumab 10 mg/kg twice a week via tail vein, ointment 5.0 wt% once a day, 14 days): 80%
- Control Rate ([7]; Panitumumab 10 mg/kg twice a week via tail vein, ointment 10.0 wt% once a day, 14 days): 60%
